These molecules were tested against T1, P2X purinoceptor 7 (Homo sapiens, UniProt Q99572) (assay: SUPPLEMENTARY: Inhibition of human P2X7 receptor assessed as inhibition of ethidium bromide accumulation. Same assay as CHEMBL1103860).
T1 sequence (Q99572 whole entry): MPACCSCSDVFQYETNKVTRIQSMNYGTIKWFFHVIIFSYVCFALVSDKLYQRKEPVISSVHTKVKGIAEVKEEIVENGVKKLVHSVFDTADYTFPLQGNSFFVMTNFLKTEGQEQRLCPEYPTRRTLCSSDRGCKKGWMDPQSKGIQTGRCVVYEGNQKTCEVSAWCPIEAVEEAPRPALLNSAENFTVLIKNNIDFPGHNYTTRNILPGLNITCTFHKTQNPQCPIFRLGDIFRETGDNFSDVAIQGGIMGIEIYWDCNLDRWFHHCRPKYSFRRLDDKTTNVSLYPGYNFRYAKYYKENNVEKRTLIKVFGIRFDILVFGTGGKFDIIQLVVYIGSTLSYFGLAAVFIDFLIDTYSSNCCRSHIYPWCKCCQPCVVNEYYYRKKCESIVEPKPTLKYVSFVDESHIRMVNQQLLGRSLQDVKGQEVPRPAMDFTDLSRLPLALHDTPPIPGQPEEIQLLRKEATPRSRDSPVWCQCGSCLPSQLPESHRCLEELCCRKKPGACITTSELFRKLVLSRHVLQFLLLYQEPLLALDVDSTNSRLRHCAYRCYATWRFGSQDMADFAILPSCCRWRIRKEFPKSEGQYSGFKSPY
`Cc1c(N2CCCC2)cccc1N1CCN(Cc2ccc(F)cc2Cl)C(=O)C1=O` was tested, and the IC50 was 25.1 nM. In the case of `CN1C(=O)N(c2cncnc2)C[C@H]1C(=O)NCc1cccc(C(F)(F)F)c1Cl`, the IC50 is reported as 12.6 nM. For `CN1C(=O)N(c2cncnc2)C[C@H]1C(=O)NCc1ccc(Cl)cc1Cl`, the IC50 was 50.1 nM. `CN1C(=O)N(c2cncnc2)C[C@H]1C(=O)NCc1ccc(F)cc1Cl` gave an IC50 of 251 nM. For `CN1C(=O)N(CCCN2CCOCC2)CC1C(=O)NCc1cccc(C(F)(F)F)c1Cl` (stereo not drawn), the IC50 was 50.1 nM. Molecule `Cc1cc(F)cc(C)c1N1CCN(Cc2ccc(F)cc2C(F)(F)F)C(=O)C1=O` has an IC50 of 79.4 nM. `CN(C)c1ccccc1N1CCN(Cc2ccc(F)cc2Cl)C(=O)C1=O` showed an IC50 of 63.1 nM. For `Cc1cccc(C)c1N1CCN(Cc2cccc(C(F)(F)F)c2Cl)C(=O)C1=O`, the IC50 was 6.31 nM. Work on `Cc1cccc(C)c1N1CCN(Cc2cccc(Cl)c2Cl)C(=O)C1=O` yielded an IC50 of 6.31 nM. `Cc1cccc(C)c1N1CCN(Cc2ccc(F)c(F)c2F)C(=O)C1=O` gave an IC50 of 39.8 nM. In the case of `Cc1cccc(C)c1N1CCN(Cc2ccc(F)cc2C(F)(F)F)C(=O)C1=O`, the IC50 is reported as 7.94 nM. In the case of `Cc1cccc(C)c1N1CCN(Cc2ccc(Cl)cc2Cl)C(=O)C1=O`, the IC50 is reported as 1.58 nM. `Cc1c(Cl)cccc1N1CCN(Cc2ccc(F)cc2Cl)C(=O)C1=O` was tested, and the IC50 was 12.6 nM. With `O=C(c1cccc(C(F)(F)F)c1F)N1CCN(c2ccc(F)cc2Cl)C(=O)C1` the IC50 was 63.1 nM. `Cc1cc(Br)ccc1N1CCN(Cc2ccc(F)cc2Cl)C(=O)C1=O` gave an IC50 of 79.4 nM. `CN1C(=O)N(c2nccc(C(F)(F)F)n2)C[C@H]1C(=O)NCc1cccc(C(F)(F)F)c1Cl` showed an IC50 of 15.8 nM. With `CN1C(=O)N(c2nccc(C(F)(F)F)n2)C[C@H]1C(=O)NCc1ccc(Cl)cc1Cl` the IC50 was 31.6 nM. In the case of `CN1C(=O)N(c2nccc(C(F)(F)F)n2)C[C@H]1C(=O)NCc1ccc(F)cc1Cl`, the IC50 is reported as 100 nM. With `Cc1c(N2CCN(Cc3ccc(F)cc3Cl)C(=O)C2=O)cccc1-n1ccnc1` the IC50 was 50.1 nM. Molecule `Cc1ccc(N2C[C@@H](C(=O)NCc3cccc(C(F)(F)F)c3Cl)N(C)C2=O)c(C)n1` has an IC50 of 7.94 nM. `Cc1ccc(N2C[C@@H](C(=O)NCc3ccc(Cl)cc3Cl)N(C)C2=O)c(C)n1` was tested, and the IC50 was 15.8 nM. Molecule `Cc1ccc(N2C[C@@H](C(=O)NCc3ccc(F)cc3Cl)N(C)C2=O)c(C)n1` has an IC50 of 63.1 nM. With `COc1c(N2CCOCC2)cccc1N1CCN(Cc2ccc(F)cc2Cl)C(=O)C1=O` the IC50 was 25.1 nM. In the case of `Cc1cccc(C(=O)N2CCN(c3ccc(F)cc3Cl)C(=O)C2)c1Cl`, the IC50 is reported as 31.6 nM. With `CCN(CC)c1ccc(N2CCN(Cc3ccc(F)cc3Cl)C(=O)C2=O)c(C)c1` the IC50 was 12.6 nM. Work on `COc1cccc(OC)c1N1CCN(Cc2ccc(F)cc2Cl)C(=O)C1=O` yielded an IC50 of 20 nM. For `O=C(c1ccc(Cl)cc1F)N1CCN(c2ccc(F)cc2Cl)C(=O)C1`, the IC50 was 63.1 nM. `O=C(c1c(Cl)cccc1Cl)N1CCN(c2ccc(F)cc2Cl)C(=O)C1` gave an IC50 of 63.1 nM. Molecule `CC(C)Oc1cc(F)ccc1N1CCN(C(=O)c2cccc(C(F)(F)F)c2Cl)CC1=O` has an IC50 of 10 nM. `CC(C)Oc1cc(F)ccc1N1CCN(C(=O)c2cccc(Cl)c2Cl)CC1=O` gave an IC50 of 15.8 nM. `CN1C(=O)N(c2cn(C)cn2)C[C@H]1C(=O)NCc1ccc(Cl)cc1Cl` showed an IC50 of 7.94 nM. With `C[C@@H]1CN(Cc2ccc(Cl)cc2Cl)C(=O)C(=O)N1c1ccccc1` the IC50 was 25.1 nM. With `O=C(c1ccc(F)c(F)c1Cl)N1CCN(c2ccc(F)cc2Cl)C(=O)C1` the IC50 was 39.8 nM. `O=C(c1cccc(F)c1F)N1CCN(c2ccc(F)cc2Cl)C(=O)C1` showed an IC50 of 316 nM. For `O=C(c1c(F)ccc(F)c1Cl)N1CCN(c2ccc(F)cc2Cl)C(=O)C1`, the IC50 was 631 nM. `O=C(c1cccc(Cl)c1F)N1CCN(c2ccc(F)cc2Cl)C(=O)C1` showed an IC50 of 158 nM. With `O=C(c1ccc(F)c(Cl)c1F)N1CCN(c2ccc(F)cc2Cl)C(=O)C1` the IC50 was 100 nM. `CN1CCN(C(=O)c2cccc(C(F)(F)F)c2Cl)CC1=O` gave an IC50 of 63.1 nM. `CN1CCN(C(=O)c2ccc(Cl)cc2Cl)CC1=O` was tested, and the IC50 was 251 nM. In the case of `CN1C(=O)N(c2cncn2C)C[C@H]1C(=O)NCc1ccc(Cl)cc1Cl`, the IC50 is reported as 10 nM. `CN1C(=O)N(c2cncn2C)C[C@H]1C(=O)NCc1cccc(C(F)(F)F)c1Cl` was tested, and the IC50 was 5.01 nM. Molecule `CN1CCN(C(=O)c2ccc(F)cc2Cl)CC1=O` has an IC50 of 501 nM. Work on `N#Cc1cc(F)ccc1N1CCN(C(=O)c2cccc(Cl)c2Cl)CC1=O` yielded an IC50 of 3.98 nM. In the case of `CN1C(=O)N(c2cc(C(F)(F)F)ncn2)C[C@H]1C(=O)NCc1ccc(F)c(F)c1Cl`, the IC50 is reported as 50.1 nM. `CN1C(=O)N(c2cc(C(F)(F)F)ncn2)C[C@H]1C(=O)NCc1ccc(Cl)cc1Cl` showed an IC50 of 31.6 nM. In the case of `CN1C(=O)N(c2cc(C(F)(F)F)ncn2)C[C@H]1C(=O)NCc1cccc(C(F)(F)F)c1Cl`, the IC50 is reported as 31.6 nM. `CC(C)CN1CCN(C(=O)c2cccc(Cl)c2Cl)CC1=O` was tested, and the IC50 was 50.1 nM. `O=C(c1ccc(F)cc1Cl)N1CCN(c2ccc(F)cc2Cl)C(=O)C1` showed an IC50 of 251 nM. `Cc1cccc(C(=O)N2CCN(C)C(=O)C2)c1Cl` gave an IC50 of 631 nM. For `CCN1CCN(C(=O)c2cccc(C(F)(F)F)c2Cl)CC1=O`, the IC50 was 126 nM. `O=C1CN(C(=O)c2cccc(C(F)(F)F)c2Cl)CCN1CC(F)(F)F` showed an IC50 of 200 nM. Work on `CC(C)N1CCN(C(=O)c2cccc(C(F)(F)F)c2Cl)CC1=O` yielded an IC50 of 100 nM. In the case of `COCCN1CCN(C(=O)c2cccc(C(F)(F)F)c2Cl)CC1=O`, the IC50 is reported as 316 nM. `COc1ccc(I)cc1N1CCN(C(=O)c2cccc(C(F)(F)F)c2Cl)CC1=O` gave an IC50 of 12.6 nM. Molecule `CC(C)CN1CCN(C(=O)c2cccc(C(F)(F)F)c2Cl)CC1=O` has an IC50 of 200 nM. `CN1C(=O)N(c2ccc(F)nc2)C[C@H]1C(=O)NCc1ccc(Cl)cc1Cl` was tested, and the IC50 was 20 nM. Work on `CN1C(=O)N(c2ccc(F)nc2)C[C@H]1C(=O)NCc1cccc(C(F)(F)F)c1Cl` yielded an IC50 of 7.94 nM. `Cc1c(Br)cccc1N1CCN(C(=O)c2cccc(C(F)(F)F)c2Cl)CC1=O` gave an IC50 of 6.31 nM. With `O=C1CN(C(=O)c2cccc(C(F)(F)F)c2Cl)CCN1CC1CCCCC1` the IC50 was 79.4 nM. In the case of `CCC(CC)N1CCN(C(=O)c2cccc(C(F)(F)F)c2Cl)CC1=O`, the IC50 is reported as 6.31 nM. For `O=C1CN(C(=O)c2cccc(C(F)(F)F)c2Cl)CCN1CC1CC1`, the IC50 was 12.6 nM. For `CCCN1CCN(C(=O)c2cccc(C(F)(F)F)c2Cl)CC1=O`, the IC50 was 50.1 nM. For `O=C1CN(C(=O)c2cccc(C(F)(F)F)c2Cl)CCN1Cc1ccncc1`, the IC50 was 316 nM. For `CN1C[C@@H](C(=O)NCc2ccc(Cl)cc2Cl)N(CC(F)(F)F)C1=O`, the IC50 was 15.8 nM. With `CCN1C(=O)N(C)C[C@H]1C(=O)NCc1ccc(Cl)cc1Cl` the IC50 was 1.58 nM. Work on `CCN1C(=O)N(C)C[C@H]1C(=O)NCc1cccc(C(F)(F)F)c1Cl` yielded an IC50 of 0.794 nM. `CCN1C(=O)N(C)C[C@H]1C(=O)NCc1ccc(F)cc1Cl` showed an IC50 of 7.94 nM. With `COc1ccc(N2C[C@@H](C(=O)NCc3ccc(Cl)cc3Cl)N(C)C2=O)cn1` the IC50 was 15.8 nM. Work on `COc1ccc(N2C[C@@H](C(=O)NCc3cccc(C(F)(F)F)c3Cl)N(C)C2=O)cn1` yielded an IC50 of 7.94 nM. `O=C(c1cccc(C(F)(F)F)c1Cl)N1CCn2ccnc2C1` showed an IC50 of 100 nM. With `N#Cc1cc(F)ccc1N1CCN(C(=O)c2cccc(C(F)(F)F)c2Cl)CC1=O` the IC50 was 3.98 nM. Molecule `O=C1CN(C(=O)c2cccc(C(F)(F)F)c2Cl)CCN1Cc1cccnc1` has an IC50 of 398 nM. In the case of `CN1C(=O)N(c2cnccn2)C[C@H]1C(=O)NCc1cccc(C(F)(F)F)c1Cl`, the IC50 is reported as 15.8 nM. With `CN1C(=O)N(c2cccnc2Cl)C[C@H]1C(=O)NCc1ccc(Cl)cc1Cl` the IC50 was 5.01 nM. `O=C1CN(C(=O)c2cccc(C(F)(F)F)c2Cl)CCN1Cc1ccccn1` was tested, and the IC50 was 158 nM. `O=C1CN(C(=O)c2cccc(C(F)(F)F)c2Cl)CCN1CC1CCC1` showed an IC50 of 200 nM. Work on `O=C(c1cccc(C(F)(F)F)c1Cl)N1CCN(C2CCCC2)C(=O)C1` yielded an IC50 of 158 nM. `O=C1CN(C(=O)c2cccc(C(F)(F)F)c2Cl)CCN1CC1CCCO1` (stereo not drawn) was tested, and the IC50 was 79.4 nM. With `CN1C(=O)NC[C@H]1C(=O)NCc1cccc(C(F)(F)F)c1F` the IC50 was 39.8 nM. For `Cc1c(CNC(=O)[C@@H]2CNC(=O)N2C)cccc1C(F)(F)F`, the IC50 was 2 nM. `CN1C(=O)NC[C@H]1C(=O)NCc1ccc(Cl)c(C(F)(F)F)c1` gave an IC50 of 158 nM. `CN1C(=O)N(c2cccnc2Cl)C[C@H]1C(=O)NCc1ccc(F)c(F)c1Cl` was tested, and the IC50 was 10 nM. `CN1C(=O)N(c2cccnc2Cl)C[C@H]1C(=O)NCc1cccc(C(F)(F)F)c1Cl` was tested, and the IC50 was 1.58 nM. In the case of `CN1C(=O)NC[C@H]1C(=O)NCc1ccc(F)c(C(F)(F)F)c1`, the IC50 is reported as 100 nM. With `Cc1c(Cl)cccc1CNC(=O)[C@@H]1CNC(=O)N1C` the IC50 was 20 nM. In the case of `Cc1cc(Cl)cc(Cl)c1CNC(=O)[C@@H]1CNC(=O)N1C`, the IC50 is reported as 1.26 nM. `Cc1cc(Cl)ccc1CNC(=O)[C@@H]1CNC(=O)N1C` showed an IC50 of 31.6 nM. `CN1C(=O)N(c2ncc(F)cn2)C[C@H]1C(=O)NCc1ccc(Cl)cc1Cl` was tested, and the IC50 was 3.98 nM. Molecule `CCN1C(=O)NC[C@H]1C(=O)NCc1ccc(Cl)cc1Cl` has an IC50 of 12.6 nM. With `CCN1C(=O)NC[C@H]1C(=O)NCc1ccc(F)cc1Cl` the IC50 was 39.8 nM. In the case of `CCN1C(=O)NC[C@H]1C(=O)NCc1cccc(C(F)(F)F)c1Cl`, the IC50 is reported as 3.98 nM. Molecule `Cc1c(Cl)cccc1CNC(=O)[C@@H]1CN(C)C(=O)N1C` has an IC50 of 6.31 nM. `CN1C[C@@H](C(=O)NCc2ccc(F)c(C(F)(F)F)c2)N(C)C1=O` was tested, and the IC50 was 50.1 nM. `CN1C[C@@H](C(=O)NCc2ccc(F)c(Cl)c2Cl)N(C)C1=O` was tested, and the IC50 was 2.51 nM. For `CN1C[C@@H](C(=O)NCc2ccc(Cl)c(C(F)(F)F)c2)N(C)C1=O`, the IC50 was 50.1 nM. `CN1C[C@@H](C(=O)NCc2ccc(F)c(C(F)(F)F)c2Cl)N(C)C1=O` was tested, and the IC50 was 1 nM. In the case of `O=C(c1cccc(C(F)(F)F)c1Cl)N1CCn2cc(C(F)(F)F)nc2C1`, the IC50 is reported as 39.8 nM. For `O=C(c1ccc(Cl)cc1Cl)N1CCn2cc(C(F)(F)F)nc2C1`, the IC50 was 794 nM.
